Where a name gives a salt, the structure may show the parent alone.
How the values were obtained:
Type in all cases: in vitro ADME
[1] = Metabolic stability in liver microsomes, Method I, rat; settings: 1 μM test compound; for microsomal CLint at 1 μM: male, Sprague-Dawley, liver microsomes; for microsomal CLint at 1 μM / microsomal CLint: rat; for microsomal CLint: microsomes
Experimental: (§1) Determination of Metabolic Stability in Liver Microsomes—Method I
(§2) The in vitro metabolic stability assay was performed in a 96-well glass plate with shaking incubation at 37° C. A 10 mM DMSO stock solution of the test compound was sequentially diluted 1:1000 to yield a final reaction concentration of 1 μM in 50 mM KPi. […] 30 μL of the 10 μM solution containing the test compound was added to 120 μL of microsomal protein for 150 μL enzyme-compound mixture. The reaction was initiated by adding 150 μL of cofactor solution (2 mM NADPH, 4 mM MgCl in 50 mM KPi) to the enzyme-compound mixture, and the final reaction concentrations are listed in the table below.
(§3) At 0, 5, 10 and 30 minute time points in the reaction, reaction aliquots (50 μL) were removed and the reactions were terminated by the addition of acetonitrile (150 μL) containing a mass spectrometry internal standard (1 μM glyburide). The samples were centrifuged and the supernatants analyzed by LC-MS/MS for quantization of remaining compound.
(§4) Analysis of the samples was performed on a high performance liquid chromatography-tandem mass spectrometry (LC/MS) system consisting of a Thermo TSQ Quantum Ultra mass spectrometer, an H-ESI ion source, a CTC-HTS Pal autosampler, and an Agilent LC Pump.
(§5) Mobile phase A consisted of purified water containing 0.01% formic acid. Mobile phase B consisted of acetonitrile containing 0.01% formic acid. The flow rate was 1 mL/min. The injection volume was 10 μL. Compounds were detected using the Thermo QuikQuan software which collects intensity data for all fragments related to the molecular weight of the test compound. After collection of the raw data, the software identifies and integrates the peak of the strongest intensity.
(§6) Each microsomal elimination rate, kmic, was based on a 4-point elimination curve tested in singlet. LC-MS/MS raw data for a reaction plate was returned as integrated analyte peak areas for the test compound and internal standard used in the quench solution for the reaction to enable use of analyte:internal standard peak area ratios (PARs) for all data comparisons. The reaction time point (e.g. 0, 5, 20 or 30 minutes) was plotted versus the natural logarithm of percent test compound remaining relative to 0 minutes (based on relative PAR).

[2] = Metabolic stability in liver microsomes, Method I, mouse; settings: for microsomal CLint at 1 μM: male, CD-1, 1 μM test compound; for microsomal CLint: 1 μM test compound
Experimental: as §1, §2, §3, §4, §5, §6

[3] = Metabolic stability in liver microsomes, Method I, human; settings: 1 μM test compound; for microsomal CLint at 1 μM: pooled liver microsomes
Experimental: as §1, §2, §3, §4, §5, §6

[4] = Metabolic stability in liver microsomes, Method II, rat; settings: 1 μM test compound, NADPH + UDPGA; for microsomal CLint at 1 μM: male, Sprague-Dawley
Experimental: Determination of Metabolic Stability in Liver Microsomes—Method II
The in vitro metabolic stability assay was performed in a 96-deep-well plate with incubation at 37° C. 10 mM DMSO stock solution of the test compound was diluted 1:20 in acetonitrile, followed by an additional 1:10 dilution in 100 mM potassium phosphate buffer (KPi) to yield a final reaction concentration of 1 μM. […] 290 μL of cofactor solution (1.7 mM NADPH, 1.7 mM UDPGA, 3.4 mM MgCl in 100 mM KPi) was added to 200 μL of microsomal protein for a final volume of 490 μL. The reaction was initiated by adding 10 μL of the 50 μM test solution to 490 μL of microsomal protein for a final volume 500 μL enzyme-compound mixture.
At 0, 5, 15 and 30 minute time points in the reaction, reaction aliquots (75 μL) were removed and the reactions were terminated by the addition of 50:50 acetonitrile/methanol solution (75 μL) containing a mass spectrometry internal standard (0.5 μM glyburide). The samples were centrifuged at 4000 RPM for 10 minutes. Supernatants (15 μL aliquots) were transferred to a new plate where each well contains 90 μL of deionized water. The supernatants solution were analyzed by UPLC/MS/MS for quantitation of parent remaining compound under multiple reactions monitoring mode (MRM) in positive mode.
Analysis of the samples was performed on an ultra-performance liquid chromatography-tandem mass spectrometry (UPLC/MS/MS) system consisting of an AB Sciex Qtrap 5500 mass spectrometer, AB Sciex Turbo V ion source, Waters Acquity Sample Organizer, Waters Acquity Column manager, Waters Acquity Sample manager, and a Waters Acquity Binary Solvent Manager. Chromatographic separation of analyte and internal standard was achieved using a reverse phase C-18 column (50×2.1 mm, 1.7 μm, Acquity UPLC BEH C-18) with the following UPLC mobile phases and elution gradient:
UPLC mobile phase A: 0.25% formic acid in 5% methanol; mobile phase B: 0.25% formic acid in 95% water.
The injection volume was 5 μL. Compounds were detected using Analyst 1.5.1 software which collects intensity data for all fragments related to the molecular weight of the test compound. After collection of the raw data, the software identifies and integrates the peak of the strongest intensity.
Each microsomal elimination rate, k, was based on a 4-point elimination curve tested in duplicates. LC-MS/MS raw data for a reaction plate was returned as integrated analyte peak areas for the test compound and internal standard used in the quench solution for the reaction to enable use of analyte:internal standard peak area ratios (PARs) for all data comparisons. The reaction time point (e.g. 0, 5, 15 and 30 minutes) was plotted versus the natural logarithm of percent test compound remaining relative to 0 minutes (based on relative PAR). The slope of this clearance plot, k, was used to calculate the in vitro half-life.
[formula] The intrinsic clearance value, CLint (expressed as μL/min/mg microsomal protein) calculation is shown below:
[formula] Where V=the incubation volume (mL) and M=the microsomal protein content in the incubation (mg)

Structure (SMILES) | microsomal CLint at 1 μM [1] | microsomal CLint at 1 μM [2] | microsomal CLint at 1 μM [3] | further results
CC(Nc1nccc(N2C(=O)OC[C@@H]2[C@@H](C)O)n1)c1nc(-c2ccc3c(c2)OC(F)(F)O3)no1 (single isomer, unassigned) [Example 169] | 68.8 µL/min/mg | – | – | Rat microsomal stability CLint [1]: 60.93 µL/min/mg
CC(Nc1nccc(N2C(=O)OC[C@@H]2[C@@H](C)O)n1)c1nc(-c2ccc(OC(F)(F)F)cc2)no1 (single isomer, unassigned) [Example 181] | 56.6 µL/min/mg | – | – | –
C[C@H](Nc1ncc(F)c(N2C(=O)OC[C@@H]2CF)n1)c1cn(-c2ccc(C(F)F)cc2)cn1 [434 as TFA salt] | – | – | – | microsomal CLint [1]: 41 µL/min/mg; microsomal CLint [4]: 10.8 µL/min/mg; microsomal CLint [2]: 10.7 µL/min/mg; microsomal CLint [3]: < 7.7 µL/min/mg
C[C@H](Nc1nccc(N2C(=O)OC[C@@H]2[C@H](C)F)n1)c1cn(-c2ccc(C(F)F)cc2)cn1 [456 as TFA salt] | – | – | – | microsomal CLint [1]: 44.7 µL/min/mg; microsomal CLint [3]: 16.8 µL/min/mg
C[C@H](Nc1nccc(N2C(=O)OC[C@@H]2CF)n1)c1cn(-c2ccc(Cl)c(F)c2)cn1 [473 as TFA salt] | – | – | – | microsomal CLint [1]: 72.5 µL/min/mg; microsomal CLint [4]: 33.3 µL/min/mg; microsomal CLint [2]: 17.7 µL/min/mg; microsomal CLint [3]: < 7.7 µL/min/mg
C[C@H](Nc1nccc(N2C(=O)OC[C@@H]2CF)n1)c1cn(-c2ccc(C(F)F)c(F)c2)cn1 [475 as TFA salt] | – | – | – | microsomal CLint [1]: 54 µL/min/mg; microsomal CLint [4]: 16.2 µL/min/mg; microsomal CLint [2]: 15.7 µL/min/mg; microsomal CLint [3]: < 7.7 µL/min/mg
C[C@H](Nc1nccc(N2C(=O)OC[C@@H]2[C@H](C)O)n1)c1ccc(CN2CCN(C)C(C)(C)C2)c(F)c1 [Example 48, (R)-3-(2-((S)-1-(3-fluoro-4-((3,3,4-trimethylpiperazin-1-yl)methyl)phenyl)ethylamino)pyrimidin-4-yl)-4-((S)-1-hydroxyethyl)oxazolidin-2-one] | 49.1 µL/min/mg | 173 µL/min/mg | 121 µL/min/mg | –
C[C@H](Nc1nccc(N2C(=O)OC[C@@H]2[C@@H](C)O)n1)c1ccc(-c2ccnc(C(F)(F)F)c2)cn1 [Example 55, (R)-4-((R)-1-hydroxyethyl)-3-(2-(((S)-1-(2′-(trifluoromethyl)-[3,4′-bipyridin]-6-yl)ethyl)amino)pyrimidin-4-yl)oxazolidin-2-one] | 58.4 µL/min/mg | 63.1 µL/min/mg | – | –
Cc1cc(-c2ccnc(C(F)(F)F)c2)cnc1[C@H](C)Nc1nccc(N2C(=O)OC[C@@H]2[C@@H](C)O)n1 [Example 61, (R)-4-((R)-1-hydroxyethyl)-3-(2-(((S)-1-(5-methyl-2′-(trifluoromethyl)-[3,4′-bipyridin]-6-yl)ethyl)amino)pyrimidin-4-yl)oxazolidin-2-one] | 34.6 µL/min/mg | 67.7 µL/min/mg | 66.4 µL/min/mg | –
C[C@H](Nc1nccc(N2C(=O)OC[C@@H]2CF)n1)c1cn(-c2ccc(Cl)cc2)cn1 [Example 404, (R)-3-(2-(((S)-1-(1-(4-chlorophenyl)-1H-imidazol-4-yl)ethyl)amino)pyrimidin-4-yl)-4-(fluoromethyl)oxazolidin-2-one] | 44.6 µL/min/mg | 18.7 µL/min/mg | < 7.7 µL/min/mg | microsomal CLint at 1 μM [4]: 75.4 µL/min/mg
Cc1cc(-c2cnc([C@H](C)Nc3nccc(N4C(=O)OC[C@@H]4[C@H](C)F)n3)nc2)ccc1F [Example 469, (R)-3-(2-(((S)-1-(5-(4-fluoro-3-methylphenyl)pyrimidin-2-yl)ethyl)amino)pyrimidin-4-yl)-4-((S)-1-fluoroethyl)oxazolidin-2-one] | 132 µL/min/mg | – | – | –

The next lines start with results.

microsomal CLint at 1 μM [1] | microsomal CLint at 1 μM [2] | microsomal CLint at 1 μM [3] | Structure (SMILES) | further results
69.4 µL/min/mg | – | – | Cc1ccc(-c2noc(C(C)Nc3ncc(F)c(N4C(=O)OC[C@@H]4[C@@H](C)O)n3)n2)cc1F (single isomer, unassigned) [Example 122] | –
48.5 µL/min/mg | – | – | CC(Nc1nccc(N2C(=O)OC[C@@H]2[C@@H](C)O)n1)c1nc(-c2ccc(C(F)(F)F)cc2)no1 (single isomer, unassigned) [Example 174] | –
– | 56.3 µL/min/mg | 39.8 µL/min/mg | CC(Nc1nccc(N2C(=O)OC[C@@H]2[C@@H](C)O)n1)c1nc(-c2ccc(C(F)(F)F)cc2)no1 (single isomer, unassigned) [Example 175] | Rat microsomal stability CLint [1]: 50.51 µL/min/mg
42.9 µL/min/mg | 51 µL/min/mg | 31.1 µL/min/mg | C[C@H](Nc1nccc(N2C(=O)OC[C@@H]2[C@@H](C)N)n1)c1cnc(-c2ccc(Cl)cc2)s1 [Example 380, (S)-4-((R)-1-aminoethyl)-3-(2-(((S)-1-(2-(4-chlorophenyl)thiazol-5-yl)ethyl)amino)pyrimidin-4-yl)oxazolidin-2-one] | microsomal CLint at 1 μM [4]: 30.2 µL/min/mg
30.4 µL/min/mg | 33.1 µL/min/mg | < 7.7 µL/min/mg | C[C@H](Nc1nccc(N2C(=O)OC[C@@H]2[C@H](C)F)n1)c1cn(-c2ccc(F)cc2)cn1 [Example 401, (R)-4-((S)-1-fluoroethyl)-3-(2-(((S)-1-(1-(4-fluorophenyl)-1H-imidazol-4-yl)ethyl)amino)pyrimidin-4-yl)oxazolidin-2-one] | microsomal CLint at 1 μM [4]: 92.4 µL/min/mg
50.8 µL/min/mg | 35.5 µL/min/mg | 28.3 µL/min/mg | C[C@H](Nc1nccc(N2C(=O)OC[C@@H]2[C@H](C)F)n1)c1ncc(-c2ccnc(C(F)(F)F)c2)cc1F [Example 463, (R)-3-(2-(((S)-1-(5-fluoro-2′-(trifluoromethyl)-[3,4′-bipyridin]-6-yl)ethyl)amino)pyrimidin-4-yl)-4-((S)-1-fluoroethyl)oxazolidin-2-one] | microsomal CLint at 1 μM [4]: 49.8 µL/min/mg
75.6 µL/min/mg | 275 µL/min/mg | 53.3 µL/min/mg | C[C@H](Nc1nccc(N2C(=O)OC[C@@H]2[C@H](C)F)n1)c1ncc(-c2cccc(C(F)(F)F)c2F)cn1 [Example 467, (R)-3-(2-(((S)-1-(5-(2-fluoro-3-(trifluoromethyl)phenyl)pyrimidin-2-yl)ethyl)amino)pyrimidin-4-yl)-4-((S)-1-fluoroethyl)oxazolidin-2-one] | microsomal CLint at 1 μM [4]: 85.4 µL/min/mg
30.5 µL/min/mg | 28.9 µL/min/mg | 70.1 µL/min/mg | C[C@H](Nc1nccc(N2C(=O)OC[C@@H]2[C@H](C)F)n1)c1ccc(-c2ccnc(C(F)(F)F)c2)cn1 [Example 468, (R)-4-((S)-1-fluoroethyl)-3-(2-(((S)-1-(2′-(trifluoromethyl)-[3,4′-bipyridin]-6-yl)ethyl)amino)pyrimidin-4-yl)oxazolidin-2-one] | –
52.8 µL/min/mg | 47.3 µL/min/mg | 83.6 µL/min/mg | Cc1cc([C@H](C)Nc2ncc(F)c(N3C(=O)OC[C@@H]3[C@H](C)F)n2)ncc1-c1ccnc(C(F)(F)F)c1 [Example 470, (R)-3-(5-fluoro-2-(((S)-1-(4-methyl-2′-(trifluoromethyl)-[3,4′-bipyridin]-6-yl)ethyl)amino)pyrimidin-4-yl)-4-((S)-1-fluoroethyl)oxazolidin-2-one] | –
65.2 µL/min/mg | 51.5 µL/min/mg | 35.6 µL/min/mg | C[C@H](Nc1ncc(F)c(N2C(=O)OC[C@@H]2CF)n1)c1ncc(-c2ccc(Cl)cc2)o1 [Example 480, (R)-3-(2-(((S)-1-(5-(4-chlorophenyl)oxazol-2-yl)ethyl)amino)-5-fluoropyrimidin-4-yl)-4-(fluoromethyl)oxazolidin-2-one] | –
